Reference: patent US4680382A, “Analogues of actinomycin D” (priority 1986, dated 1987)

What was measured:
[1] = target: T1, NADPH cytochrome P-450 reductase (rat liver microsomes) (Rattus norvegicus, UniProt P00388); assay: Stimulation of NADPH oxidation in rat hepatic microsomal incubations; conditions: for NADPH oxid: 340 nm, 37° C., phenobarbital induced microsomes, mean ± standard error of triplicate, basal 9.11 ± 0.30; for percentage stimulation of NADPH oxidation over basal rate: (drug-stimulated rate - basal rate)/basal rate × 100
T1 sequence (P00388 1-678): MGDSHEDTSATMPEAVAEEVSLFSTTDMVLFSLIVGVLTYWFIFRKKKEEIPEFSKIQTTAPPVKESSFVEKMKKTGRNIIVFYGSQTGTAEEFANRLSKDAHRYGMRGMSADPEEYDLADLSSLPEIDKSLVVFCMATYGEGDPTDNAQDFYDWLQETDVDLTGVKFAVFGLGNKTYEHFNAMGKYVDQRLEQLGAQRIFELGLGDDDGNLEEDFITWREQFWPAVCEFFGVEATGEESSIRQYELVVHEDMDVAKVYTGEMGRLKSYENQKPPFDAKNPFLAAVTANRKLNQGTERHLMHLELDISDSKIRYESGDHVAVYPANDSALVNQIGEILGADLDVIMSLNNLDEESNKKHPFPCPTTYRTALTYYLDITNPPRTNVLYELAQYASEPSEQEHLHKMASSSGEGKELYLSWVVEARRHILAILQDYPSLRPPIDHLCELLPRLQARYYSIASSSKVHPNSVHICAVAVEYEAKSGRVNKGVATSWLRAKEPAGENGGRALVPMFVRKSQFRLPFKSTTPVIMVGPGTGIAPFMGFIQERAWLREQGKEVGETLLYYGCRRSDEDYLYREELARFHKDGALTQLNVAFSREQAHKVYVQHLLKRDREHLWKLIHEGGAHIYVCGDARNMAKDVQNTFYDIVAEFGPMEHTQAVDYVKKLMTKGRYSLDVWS

rat hepatic microsomes = assay: Stimulation of adrenochrome formation (superoxide generation) in rat hepatic microsomal incubations; conditions: no SOD; for adrenochrome formation: 480 nm, 37° C., no more than 100 μM drug, basal 2.11 ± 0.11
P388/S = assay: In vivo activity against P388/S (adriamycin sensitive) leukemia, Table VII; design: species or system BDF1 mice
Description: (§1) ^a Male BDF1 mice inoculated ip: 10^6 cells inoculum, day 0.
(§2) Drugs administered in 10% dimethyl sulfoxidesaline on days 1, 5 and 9. %
(§3) ILS = percent increase in life span. Fractions in parentheses = tumorfree
(§4) survivors/total on day 60. P388/S (adriamycin sensitive) and P388/ADR
(§5) (adriamycin resistant) tumors were evaluated in the same experiment with […]

P388/ADR = assay: In vivo activity against P388/adriamycin-resistant leukemia; design: species or system BDF1 mice
Description: as §1, §2, §3, §4, §5

liver microsomes = assay: EPR detection of free-radical intermediates with liver microsomes and NADPH (anaerobic); assay type: biochemical; conditions: NADPH, potassium phosphate buffer
Description: No free-radical intermediates were detected in the absence of enzyme or substrates.
Melting points are determined on a Thomas-Hoover melting point apparatus at a heating rate of 2° C./min. Thin-layer chromatography was performed on silica gel plates (Brinkmann Instrument Inc.). Solvent systems were (A) EtOAc-acetone (4:1), (B) CHCl3 -MeOH (9:1) and (C) Cifferri, the organic phase of the mixture EtOAc-MeOH-H2 O (20:1:20). High-performance liquid chromatography was carried out on a Varian Model 5020 gradient liquid chromatograph equipped with a CD-111L chromatography data system and fitted with a Varian reversed-phase C18 column with the following solvent systems: I, CH3 CN-5 mM NH4 OAc buffer, pH 6.4 (68:32 isocratic), flow rate 1.5 mL/min; II, 65-95% water-methanol gradient for 70 min, 1 mL/min; III, 10-90% H2 O-MeOH gradient for 120 min, 1 mL/min, with UV-visible variable- and fixed-wavelength dual detectors at 254, 440, 470 and 520 nm. IR spectra were obtained on a Perkin-Elmer Model 237 Infra Cord with KBr micropellets or in chloroform solutions. UV-visible spectra were obtained on a Gilford 250 spectrophorometer, which, with the addition of a base-line reference compensator (Analog Multiplexer 5053) and thermoprogrammer, auto four cell programmer and thermoelectric cell holder 2577, were used to obtain thermal denaturation curves. Specific rotation values were determined in chloroform solutions with a Cary 60 spectropolarimeter. NMR spectra were obtained in a JEOL FQ-90 MHz spectrometer equipped with Fourier transform. EPR spectra analyses were recorded in a Varian E-9 EPR spectrometer. All elemental analyses were within ±0.4%.

Row | Structure (SMILES) | NADPH oxid [1] | percentage stimulation of NADPH oxidation over basal rate [1] [%] | adrenochrome formation (rat hepatic microsomes) | percentage stimulation of adrenochrome formation over basal rate (rat hepatic microsomes) | P388/S % ILS (P388/S; at optimal dose) [%] | P388/S tumor-free survivors/total on day 60 (P388/S; at optimal dose) | P388/S optimal dose (P388/S; ip, days 1, 5 and 9) [mg/kg] | P388/ADR % ILS (P388/ADR; at optimal dose) [%] | P388/ADR tumor-free survivors/total on day 60 (P388/ADR; at optimal dose) | P388/ADR optimal dose (P388/ADR; ip, days 1, 5 and 9) [mg/kg] | free-radical intermediate detected by EPR (liver microsomes)
1 | CCN(CC)C(=O)c1cc(=O)c(C)c2oc3c(C)c4oc(C)nc4c(C(=O)N(CC)CC)c3nc1-2 [9b] | 8.9 ± 0.90 nmol min^-1 (mg of protein)^-1 | -2 | 2.13 ± 0.19 nmol min^-1 (mg of protein)^-1 | +1% | – | – | – | – | – | – | –
2 | CO[C@@]12[C@H](COC(N)=O)C3=C(C(=O)C(C)=C(N)C3=O)N1C[C@@H]1N[C@@H]12 [mitomycin C, reference compound] | – | – | – | – | 136 | 1/8 | 3.0 | 400 | 5/8 | 3.0 | –
3 | CCN(CC)C(=O)c1c2nc3c(C(=O)N(CC)CC)c4nc(C)oc4c(C)c3oc-2c(C)c(=O)c1N [7b] | 8.9 ± 0.90 nmol min^-1 (mg of protein)^-1 | -2 | 2.13 ± 0.19 nmol min^-1 (mg of protein)^-1 | +1% | – | – | – | – | – | – | no free-radical intermediates were detectable
4 | CCN(CC)C(=O)c1c2nc3c(C(=O)N(CC)CC)cc(O)c(C)c3oc-2c(C)c(=O)c1N [2b] | 8.9 ± 0.90 nmol min^-1 (mg of protein)^-1 | -2 | 2.13 ± 0.19 nmol min^-1 (mg of protein)^-1 | +1% | – | – | – | – | – | – | –
